In ChEMBL document CHEMBL1145457, “Structure-activity studies and analgesic efficacy of N-(3-pyridinyl)-bridged bicyclic diamines, exceptionally potent agonists at nicotinic acetylcholine receptors” (J Med Chem, 2007):
Calls of active or inactive are those of the source. No cut-off for these calls is given here.

What was measured:
Striatum = assay: Agonist activity at rat striatal tissue assessed as dopamine release; type: functional
[1] = target: Neuronal acetylcholine receptor; alpha4/beta2 (Homo sapiens, UniProt P17787+P43681); assay: Agonist activity at […] in IMR-32cells assessed as calcium influx by FLIPR assay; type: functional
Sequence of Neuronal acetylcholine receptor; alpha4/beta2 (Homo sapiens, UniProt P17787+P43681) (P17787 whole entry): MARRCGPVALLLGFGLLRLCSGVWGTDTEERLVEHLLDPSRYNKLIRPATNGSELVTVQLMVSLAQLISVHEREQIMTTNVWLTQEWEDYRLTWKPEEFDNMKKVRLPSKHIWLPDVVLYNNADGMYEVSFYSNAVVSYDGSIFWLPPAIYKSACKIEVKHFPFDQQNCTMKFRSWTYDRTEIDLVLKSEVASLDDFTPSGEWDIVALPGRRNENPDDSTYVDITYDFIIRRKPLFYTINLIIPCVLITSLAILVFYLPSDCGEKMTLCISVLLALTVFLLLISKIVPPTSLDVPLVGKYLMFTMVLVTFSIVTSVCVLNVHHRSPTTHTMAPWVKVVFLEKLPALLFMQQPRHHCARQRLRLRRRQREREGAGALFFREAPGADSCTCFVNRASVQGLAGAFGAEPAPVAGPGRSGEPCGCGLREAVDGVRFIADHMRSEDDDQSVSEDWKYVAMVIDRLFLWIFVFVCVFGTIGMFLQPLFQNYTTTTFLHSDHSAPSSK
Sequence of Neuronal acetylcholine receptor; alpha4/beta2 (Homo sapiens, UniProt P17787+P43681) (P43681 whole entry): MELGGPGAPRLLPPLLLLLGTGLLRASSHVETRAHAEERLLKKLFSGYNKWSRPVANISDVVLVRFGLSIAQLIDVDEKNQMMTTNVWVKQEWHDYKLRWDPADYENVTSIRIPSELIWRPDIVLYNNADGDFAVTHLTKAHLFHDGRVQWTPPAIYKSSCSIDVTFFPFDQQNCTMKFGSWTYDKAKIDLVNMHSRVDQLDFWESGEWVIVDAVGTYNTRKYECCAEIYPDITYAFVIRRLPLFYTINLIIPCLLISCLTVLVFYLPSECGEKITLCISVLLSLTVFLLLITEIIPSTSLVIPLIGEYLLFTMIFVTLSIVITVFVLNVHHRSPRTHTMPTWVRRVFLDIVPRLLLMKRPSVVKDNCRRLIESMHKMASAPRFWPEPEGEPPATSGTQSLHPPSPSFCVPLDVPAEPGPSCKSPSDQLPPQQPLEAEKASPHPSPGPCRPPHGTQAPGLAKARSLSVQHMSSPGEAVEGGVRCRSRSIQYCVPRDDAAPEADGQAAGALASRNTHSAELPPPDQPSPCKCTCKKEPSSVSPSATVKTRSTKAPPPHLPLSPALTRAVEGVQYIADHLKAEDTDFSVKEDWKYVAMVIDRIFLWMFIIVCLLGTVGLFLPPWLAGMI

[2] = target: Neuronal acetylcholine receptor; alpha4/beta2 (Rattus norvegicus, UniProt P09483+P12390); assay: Displacement of [3H]cytisine from alpha-4-beta-2 in rat cerebral cortical membrane; type: cell membranes
Sequence of Neuronal acetylcholine receptor; alpha4/beta2 (Rattus norvegicus, UniProt P09483+P12390) (P09483 whole entry): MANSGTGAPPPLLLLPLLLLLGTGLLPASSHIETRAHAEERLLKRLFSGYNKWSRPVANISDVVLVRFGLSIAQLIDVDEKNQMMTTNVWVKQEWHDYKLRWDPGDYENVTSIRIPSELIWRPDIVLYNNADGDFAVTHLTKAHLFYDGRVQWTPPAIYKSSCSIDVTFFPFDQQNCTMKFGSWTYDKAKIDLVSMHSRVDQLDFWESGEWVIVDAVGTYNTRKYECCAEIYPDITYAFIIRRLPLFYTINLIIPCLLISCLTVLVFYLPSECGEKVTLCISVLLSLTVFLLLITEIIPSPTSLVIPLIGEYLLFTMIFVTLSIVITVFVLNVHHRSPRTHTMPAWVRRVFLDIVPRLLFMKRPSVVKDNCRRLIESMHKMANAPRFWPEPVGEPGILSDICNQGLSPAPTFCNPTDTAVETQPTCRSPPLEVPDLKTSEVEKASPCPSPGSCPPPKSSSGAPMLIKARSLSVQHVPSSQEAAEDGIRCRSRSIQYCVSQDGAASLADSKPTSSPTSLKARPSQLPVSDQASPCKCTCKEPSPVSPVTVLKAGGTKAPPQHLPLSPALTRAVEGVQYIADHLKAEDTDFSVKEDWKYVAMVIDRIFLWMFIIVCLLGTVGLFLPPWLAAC
Sequence of Neuronal acetylcholine receptor; alpha4/beta2 (Rattus norvegicus, UniProt P09483+P12390) (P12390 whole entry): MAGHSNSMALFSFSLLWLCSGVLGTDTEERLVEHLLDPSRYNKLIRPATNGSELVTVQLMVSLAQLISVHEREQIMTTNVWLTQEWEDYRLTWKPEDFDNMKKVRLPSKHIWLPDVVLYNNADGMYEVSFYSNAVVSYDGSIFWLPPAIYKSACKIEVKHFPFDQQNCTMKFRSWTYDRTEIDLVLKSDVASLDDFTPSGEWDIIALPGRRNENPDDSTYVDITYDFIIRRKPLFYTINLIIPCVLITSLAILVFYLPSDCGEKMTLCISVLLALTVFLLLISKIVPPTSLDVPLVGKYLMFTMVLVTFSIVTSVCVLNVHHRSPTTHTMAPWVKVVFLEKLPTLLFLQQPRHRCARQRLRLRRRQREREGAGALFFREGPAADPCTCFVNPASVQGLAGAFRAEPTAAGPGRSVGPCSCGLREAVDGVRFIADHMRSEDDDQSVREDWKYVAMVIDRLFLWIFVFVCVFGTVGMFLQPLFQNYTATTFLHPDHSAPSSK

Mus musculus [3] = assay: Effect on hypolocomotion in mouse at 6.2 umol/kg, ip; type: functional, organism-based
Rattus norvegicus [4] = assay: Antinociceptive effect on rat assessed as increased latency to paw withdrawal in response to noxious thermal stimulus at 0.62 umol/kg, ip; type: functional, organism-based
Mus musculus [5] = assay: Effect on head weaving in mouse at 6.2 umol/kg, ip; type: functional, organism-based
Rattus norvegicus [6] = assay: Antinociceptive effect on rat assessed as reduction of flinches up to 1.9 umol/kg, ip; type: functional, organism-based
Mus musculus [7] = assay: Induction of seizure in mouse at 62 umol/kg, ip; type: functional, organism-based
Mus musculus [8] = assay: Effect on urination in mouse at 6.2 umol/kg, ip; type: functional, organism-based
Rattus norvegicus [9] = species: Rattus norvegicus; assay: Reversal of mechanically-stimulated hyperalgesia in spinal nerve ligated rat chung model; type: functional, organism-based
[10] = Drug level in Sprague-Dawley rat brain at 6.2 umol/kg, ip after 15 mins; type: ADME, organism-based; conditions: read-out: Drug uptake
[11] = Drug level in Sprague-Dawley rat brain at 6.2 umol/kg, ip after 30 mins; type: ADME, organism-based; conditions: read-out: Drug uptake
[12] = Drug level in Sprague-Dawley rat at 6.2 umol/kg, ip after 60 mins; type: ADME, organism-based; conditions: brain, read-out: Drug uptake
Rattus norvegicus [13] = assay: Effect on reversal of allodynia in rat chug model at 19 umol/kg, ip; type: functional, organism-based
[14] = Drug levels in Sprague-Dawley rat plasma at 6.2 umol/kg, ip after 15 mins; type: ADME, organism-based
[15] = Drug level in Sprague-Dawley rat plasma at 6.2 umol/kg, ip after 30 mins; type: ADME, organism-based
[16] = Drug level in Sprague-Dawley rat plasma at 6.2 umol/kg, ip after 60 mins; type: ADME, organism-based
Rattus norvegicus [17] = assay: Antinociceptive effect in rat assessed as reduction of flinches up to 6.2 umol/kg, ip; type: functional, organism-based
[18] = Rattus norvegicus, Striatum, read-out: EC50
[19] = Rattus norvegicus, Striatum, read-out: Log EC50 (converted)

| SMILES | EC50 ([1]; read-out: EC50) [nM] | Ki ([2]; read-out: Ki) [nM] | further results |
| --- | --- | --- | --- |
| Cc1ccc(N2C[C@@H]3C[C@H]2CN3)cn1 | 1700 | 1.6 | EC50 (Striatum; [18]): 350 nM; EC50 (Striatum; [19]): 347 nM |
| c1cncc(N2CC3CNC(C3)C2)c1 (stereo not drawn) | 72 | 0.047 |  |
| Clc1nnc(N2C[C@@H]3C[C@H]2CN3)c2ccccc12 |  | 1900 |  |
| Cc1cc(N2C[C@H]3C[C@@H]2CN3)cnc1Cl | 180 | 0.014 |  |
| Clc1ccc(C2CC3CCC2N3)cn1 (stereo not drawn) [EPIBATIDINE] |  |  | EC50 (Striatum; [18]): 0.83 nM; EC50 (Striatum; [19]): 0.832 nM |
| O=S(=O)(c1cnc(Cl)c(Br)c1)N1C[C@H]2C[C@@H]1CN2 |  | 17 |  |
| O=[N+]([O-])c1ccc(N2C[C@@H]3C[C@H]2CN3)cc1 |  | 67 |  |
| N#Cc1cncc(N2C[C@@H]3C[C@H]2CN3)c1 | 24000 | 1.7 | Log EC50 (Striatum): -7.64; EC50 (Striatum; read-out: EC50): 23 nM; Ki ([2]; read-out: Log Ki (converted)): 1.62 nM |
| c1ccc(N2C[C@@H]3C[C@H]2CN3)nc1 |  | 980 |  |
| O=[N+]([O-])c1cccc(N2C[C@@H]3C[C@H]2CN3)c1 |  | 600 |  |
| FC(F)(F)c1cncc(N2C[C@H]3C[C@@H]2CN3)c1 |  | 490 |  |
| Clc1ccc(N2C[C@@H]3C[C@H]2CN3)cn1 | 450 | 0.1 | Activity (Mus musculus [3]): Active; Activity (Rattus norvegicus [4]): Active; Log EC50 (Striatum): -8.28; EC50 (Striatum; read-out: EC50): 5.3 nM; Activity (Mus musculus [5]): Active; Activity (Rattus norvegicus [6]): Active; Activity (Mus musculus [7]): Active; Activity (Mus musculus [8]): Active; Activity (Rattus norvegicus [9]): Active |
| Clc1ccc(N2CC3CC2CCN3)cn1 (stereo not drawn) | 7440 | 2.8 |  |
| Oc1cc(N2C[C@@H]3C[C@H]2CN3)cnc1Cl | 35000 | 1.6 | Log EC50 (Striatum): -7.3; EC50 (Striatum; read-out: EC50): 51 nM |
| Fc1ccc(N2C[C@@H]3C[C@H]2CN3)cn1 | 3700 | 0.17 | Log EC50 (Striatum): -7.72; EC50 (Striatum; read-out: EC50): 19 nM; Ki ([2]; read-out: Log Ki (converted)): 0.141 nM |
| Fc1ccc(N2C[C@H]3C[C@@H]2CN3)cn1 | 160 | 0.028 | Log EC50 (Striatum): -6.7; EC50 (Striatum; read-out: EC50): 1.6 nM; EC50 ([1]; read-out: Log EC50 (converted)): 1.62 nM |
| c1cncc(N2CC3CCC2CN3)c1 (stereo not drawn) | 280 | 0.02 |  |
| CN1CCC[C@H]1c1cccnc1 [NICOTINE] |  |  | EC50 (Striatum; [18]): 200 nM; EC50 (Striatum; [19]): 200 nM |
| NCc1cncc(N2C[C@@H]3C[C@H]2CN3)c1 | 20000 | 140 |  |

| SMILES | EC50 ([1]; read-out: EC50) [nM] | Ki ([2]; read-out: Ki) [nM] | further results |
| --- | --- | --- | --- |
| O=C1C2CC(CN2)N1c1ccc(Cl)nc1 (stereo not drawn) |  | > 10000 | Ki ([2]; read-out: Log Ki (converted)): > 100000 nM |
| c1ccc2ncc(N3C[C@@H]4C[C@H]3CN4)cc2c1 |  | 17 |  |
| NC(=O)c1cncc(N2C[C@@H]3C[C@H]2CN3)c1 | 25000 | 24 |  |
| c1cncc(N2CC3CNCC2C3)c1 (stereo not drawn) | 1600 | 0.065 |  |
| CCN1C[C@@H]2C[C@H]1CN2c1ccc(Cl)nc1 |  | 34 |  |
| c1cncc(N2C[C@H]3C[C@@H]2CN3)c1 | 370 | 0.018 |  |
| Clc1ccc(N2C[C@H]3C[C@@H]2CN3)cn1 | 140 | 0.018 | Log EC50 (Striatum): -8.6; EC50 (Striatum; read-out: EC50): 2.5 nM |
| c1ccc2nc(N3C[C@@H]4C[C@H]3CN4)ccc2c1 |  | 4000 |  |
| CN1C[C@@H]2C[C@H]1CN2c1ccc(Cl)nc1 |  | 1.3 |  |
| N#Cc1cncc(N2C[C@H]3C[C@@H]2CN3)c1 | 980 | 0.027 | Log EC50 (Striatum): -9.1; EC50 (Striatum; read-out: EC50): 0.8 nM |
| c1cnc2cc(N3C[C@H]4C[C@@H]3CN4)sc2c1 |  | 0.83 |  |
| c1cncc(N2C[C@@H]3C[C@H]2CN3)c1 | 6400 | 0.15 | EC50 (Striatum; [18]): 138 nM; EC50 (Striatum; [19]): 138 nM |
| Oc1cncc(N2C[C@H]3C[C@@H]2CN3)c1 | 2600 | 0.035 | Log EC50 (Striatum): -8.24; EC50 (Striatum; read-out: EC50): 5.7 nM |
| Nc1ccc(N2CC3CC2CN3)cn1 (stereo not drawn) | 31000 | 20 |  |
| C[N+]1(C)CC2CC1CN2c1ccc(Cl)nc1 (stereo not drawn) | 1500 | 0.2 |  |
| Cc1cc(N2C[C@@H]3C[C@H]2CN3)sn1 |  | 4.9 |  |
| Cc1nsc(N2C[C@H]3C[C@@H]2CN3)n1 |  | 350 |  |
| Oc1cc(N2C[C@H]3C[C@@H]2CN3)cnc1Cl | 3200 | 0.17 | concentration at 0.25 h [10]: 29 ng/g; concentration at 0.5 h [11]: 22 ng/g; Log EC50 (Striatum): -8.42; EC50 (Striatum; read-out: EC50): 3.8 nM; concentration at 1 h [12]: 10 ng/g; Activity (Rattus norvegicus [13]): inactive; concentration at 0.25 h [14]: 458 ng/mL; concentration at 0.5 h [15]: 289 ng/mL; concentration at 1 h [16]: 131 ng/mL; Activity (Rattus norvegicus [17]): Active |
| COc1cncc(N2C[C@H]3C[C@@H]2CN3)c1 | 5700 | 0.12 | Log EC50 (Striatum): -7.7; EC50 (Striatum; read-out: EC50): 20 nM |

| SMILES | EC50 ([1]; read-out: EC50) [nM] | Ki ([2]; read-out: Ki) [nM] | further results |
| --- | --- | --- | --- |
| COc1ccc(N2C[C@H]3C[C@@H]2CN3)cn1 | 850 | 0.25 |  |
| c1ccc(N2C[C@@H]3C[C@H]2CN3)cc1 |  | 1000 |  |
| Clc1ccc(N2C[C@@H]3C[C@H]2CN3)cc1 |  | 22 |  |
| c1cncc(CN2C[C@H]3C[C@@H]2CN3)c1 |  | 56 |  |
| Clc1cc(N2CC3CC2CN3)ncn1 (stereo not drawn) |  | 52 |  |
| c1csc(N2C[C@@H]3C[C@H]2CN3)n1 |  | 2300 |  |
| COc1cncc(N2C[C@@H]3C[C@H]2CN3)c1 | 30000 | 0.53 | Log EC50 (Striatum): -7.09; EC50 (Striatum; read-out: EC50): 81 nM |
| c1cnnc(N2C[C@@H]3C[C@H]2CN3)c1 |  | 120 |  |
| Clc1cc(N2C[C@H]3C[C@@H]2CN3)cnc1Cl | 550 | 0.018 | EC50 (Striatum; [18]): 16 nM; EC50 (Striatum; [19]): 16.2 nM |
| O=[N+]([O-])c1ccc(N2C[C@@H]3C[C@H]2CN3)cn1 | 11000 | 110 |  |
| Cc1cc(N2C[C@@H]3C[C@H]2CN3)nnc1Cl |  | 3.8 |  |
| Fc1cccc(N2C[C@@H]3C[C@H]2CN3)c1 |  | 250 |  |
| c1cnc2c(N3C[C@H]4C[C@@H]3CN4)csc2c1 |  | 280 |  |
| Oc1cncc(N2C[C@@H]3C[C@H]2CN3)c1 | > 100000 | 4 | Log EC50 (Striatum): -7.6; EC50 (Striatum; read-out: EC50): 28 nM |
| NC(=O)c1cncc(N2C[C@H]3C[C@@H]2CN3)c1 | 28000 | 0.83 | EC50 (Striatum; [18]): 30 nM; EC50 (Striatum; [19]): 30.2 nM |
| O=C(c1ccc(Cl)nc1)N1C[C@H]2C[C@@H]1CN2 |  | 590 |  |
| COc1cc(N2C[C@H]3C[C@@H]2CN3)cnc1Cl | 4300 | 0.1 |  |
| c1ncc(N2C[C@@H]3C[C@H]2CN3)cn1 |  | 0.95 |  |
